Experimental data taken from article PMC8151276, “An Integrated Approach toward NanoBRET Tracers for Analysis of GPCR Ligand Engagement” (Molecules, 2021).

Target: T1, ADRB3 (Homo sapiens, UniProt P13945)
T1 construct: purchased Promega (in-house HiBiT-GPCR construct library, NanoBRET)
Experiment: NanoBRET screen HiBiT-ADRB3 in HEK293
Assay type: binding
Procedure: Each tracer candidate was screened across the entire library of HiBiT-GPCR constructs using NanoBRET as the detection modality. As depicted in Figure 4A, the specificity of interactions was evaluated through decrease in BRET due to competitive displacement of a bound tracer by excess parental compound. Each tracer was analyzed for binding to each HiBiT-GPCR fusion in the absence and in the presence of competing parental compound. Briefly, HEK293 cells were transfected with HiBiT-GPCR constructs diluted into promoterless DNA to reduce expression and maximize translocation to the cell surface. Each tracer candidate was then screened at concentrations of 1 μM and 0.1 μM across cells expressing these fusions. Cells were treated for 1.5 h with tracer either alone or in the presence of 20 μM competing parental compound (i.e., control). BRET was measured upon addition of purified LgBiT and subsequent complementation with HiBiT genetically fused to a GPCR. The specificity of interactions was assessed through a decrease in BRET signal due to competitive displacement of the bound tracer. To further gauge the robustness of these interactions, the fold response over the control (i.e., BRETtracer/BRETcontrol) was calculated. We chose a 1.5-fold response, which translates to ≥7-fold signal over noise as the minimal threshold required to score an interaction as positive.
HiBiT-GPCR DNA constructs were diluted in 10 mM Tris pH 8 to a final concentration of 0.01 μg/μL, arrayed in 96-well plates and stored at −20 °C. For transfection, HEK293 cells were suspended in Opti-MEM (without phenol red) supplemented with 2% fetal bovine serum (Seradigm) and 100 units/mL penicillin–streptomycin (Gibco) at a final concentration of 220,000 cells/mL and dispensed into white 96-well plates at 90 μL/well. Subsequent transfections and screens were carried using an Agilent Bravo Automated Liquid Handling Platform. First, the 96-well HiBiT DNA arrays were diluted 25-fold in Opti-MEM (without serum or phenol red) to a final concentration of 0.0004 μg/μL and 20 μL of the diluted DNAs were transferred into new 96-well plates. Next, promoterless carrier DNA (1 μg/μL) was diluted 25-fold (0.04 μg/μL) and then dispensed into the diluted arrays at 20 μL/well. Following brief mixing, Viafect transfection reagent (Promega) diluted 16-fold into Opti-MEM was dispensed into the plates at 40 μL/well. After mixing by pipetting, plates were incubated for 10 min on the pipetting station deck. The DNA-transfection reagent complexes were then added to plates containing cells. To facilitate the screen, 10 μL of DNA-transfection reagent complexes were added in duplicates to the top 4 and bottom 4 rows, resulting in two identical 48-well arrays per plate. Plates with transfected cells were incubated for 18–20 h at 37 °C/5% CO2. A screen of each tracer across the entire library using two different concentrations requires duplicate plates of transfected cells. Depending on the number of tracers being screened, transfections can be scaled up using the same ratios. The next day, for each tracer, four 20× screening solutions in tracer dilution buffer (Promega) were prepared: two duplicates at final concentration of 20 μM and two duplicates at a final concentration of 2 μM. […] The four resulting solutions were diluted 4-fold in Opti-MEM without serum or phenol red to generate 5× solutions (5 µM and 0.5 µM tracer +/− 100 μM competing compound). To screen the library, a BioTek MultiFlo FX liquid dispenser was used to dispense 22.5 µL of tracer solution to the top 4 rows and 22.5 µL tracer + competing compound solution to the 4 bottom rows. Plates were briefly mixed on an orbital shaker and incubated for 1.5 h at room temperature. […] Plates were briefly mixed on an orbital shaker and incubated for 15 min to allow complementation.

T1 sequence (P13945 whole entry): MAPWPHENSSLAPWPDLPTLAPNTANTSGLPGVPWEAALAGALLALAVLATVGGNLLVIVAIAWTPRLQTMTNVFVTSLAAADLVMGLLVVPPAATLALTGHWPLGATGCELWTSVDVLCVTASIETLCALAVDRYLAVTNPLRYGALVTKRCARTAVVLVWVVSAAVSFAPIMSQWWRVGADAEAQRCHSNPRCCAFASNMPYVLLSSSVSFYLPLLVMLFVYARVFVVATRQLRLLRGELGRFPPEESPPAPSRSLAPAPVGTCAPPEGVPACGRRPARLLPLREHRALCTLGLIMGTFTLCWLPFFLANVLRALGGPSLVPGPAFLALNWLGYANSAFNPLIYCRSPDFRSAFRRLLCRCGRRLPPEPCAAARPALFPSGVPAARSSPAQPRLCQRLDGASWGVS

| SMILES | NanoBRET Fold Response (ADRB3, tracer 0.1μM) | NanoBRET Fold Response (ADRB3, tracer 1μM) | further results |
| --- | --- | --- | --- |
| Cc1nc2n(c(=O)c1CCN1CCC(c3noc4cc(F)ccc34)CC1)CCCC2OC(=O)NCCOCCOCCOCCOCCNC(=O)CCc1ccc2n1[B-](F)(F)[N+]1=C(c3ccc[nH]3)C=CC1=C2 (stereo not drawn) [Risperidone-2-NB590] | 0.98 | 1.01 |  |
| CCOC(=O)c1cc(C#N)c(N2CCC(C(=O)NS(=O)(=O)Cc3ccccc3/C=C/C(=O)NCCNC(=O)CCc3ccc4n3[B-](F)(F)[N+]3=C(c5ccc[nH]5)C=CC3=C4)CC2)nc1C [AZD1283-1-NB590] |  |  | NanoBRET Fold Response (ADRB3, 0.1μM): 1.09; NanoBRET Fold Response (ADRB3, 1μM): 1.04 |
| Cc1cc2c(s1)Nc1ccccc1N=C2N1CCN(CCCNC(=O)CCOCCOCCOCCOCCNC(=O)CCc2ccc3n2[B-](F)(F)[N+]2=C(c4ccc[nH]4)C=CC2=C3)CC1 [Olanzapine-a-2-NB590] | 1.05 | 0.89 |  |
| COc1ccccc1N1CCN(CCCCN2C(=O)c3ccc(CNC(=O)CCOCCNC(=O)c4ccc(CNC(=O)CCc5ccc6n5[B-](F)(F)[N+]5=C(c7ccc[nH]7)C=CC5=C6)cc4)cc3C2=O)CC1 [NAN-190-3-NB590] | 1.03 | 0.92 |  |
| CC(C)N(CC[C@H](c1ccccc1)c1cc(CCNC(=O)CCOCCOCCOCCOCCNC(=O)CCc2ccc3n2[B-](F)(F)[N+]2=C(c4ccc[nH]4)C=CC2=C3)ccc1O)C(C)C [Tolterodine-2-NB590] | 0.97 | 0.97 |  |
| CN(C)CCC=C1c2ccccc2CCc2ccc(C(=O)NCCNC(=O)CCOCCOCCOCCOCCNC(=O)CCc3ccc4n3[B-](F)(F)[N+]3=C(c5ccc[nH]5)C=CC3=C4)cc21 [Amitriptyline-b-2-NB590] |  |  | NanoBRET Fold Response (tracer at 0.1μM, listed as amitriptyline-b-2-NB590): 1.15; NanoBRET Fold Response (tracer at 1μM, listed as amitriptyline-b-2-NB590): 1.02 |
| O=C(CCOCCOCCOCCOCCNC(=O)CCc1ccc2n1[B-](F)(F)[N+]1=C(c3ccc[nH]3)C=CC1=C2)NCCCN1CCN(C2=Nc3ccccc3Oc3ccc(Cl)cc32)CC1 [Loxapine-a-2-NB590] | 1.01 | 0.93 |  |
| CN(C)CCC=C1c2ccccc2CCc2ccc(C(=O)NCCNC(=O)CCOCCOCCOCCOCCNC(=O)CCc3ccc4n3[B-](F)(F)[N+]3=C(c5ccc[nH]5)C=CC3=C4)cc21 [Amitriptyline-a-2-NB590] |  |  | NanoBRET Fold Response (tracer at 0.1μM): 0.95; NanoBRET Fold Response (tracer at 1μM): 0.99 |
| O=C(CCc1ccc2n1[B-](F)(F)[N+]1=C(c3ccc[nH]3)C=CC1=C2)NCCOCCOCCNC(=O)OCCOCCN1CCN(C2=Nc3ccccc3Sc3ccccc32)CC1 [Quetiapine-a-2-NB590] | 1.08 | 0.99 |  |
| COc1ccccc1N1CCN(CCCCN2C(=O)c3ccc(CNC(=O)CCOCCOCCOCCOCCNC(=O)CCc4ccc5n4[B-](F)(F)[N+]4=C(c6ccc[nH]6)C=CC4=C5)cc3C2=O)CC1 [NAN-190-2-NB590] | 0.98 |  |  |
| CN1CCN(C2=Nc3cc(Cl)ccc3N(CC(=O)NCCOCCOCCOCCOCCNC(=O)CCc3ccc4n3[B-](F)(F)[N+]3=C(c5ccc[nH]5)C=CC3=C4)c3ccccc32)CC1 [Clozapine-c-2-NB590] |  |  | NanoBRET Fold Response (ADRB3, 0.1μM tracer): 0.98; NanoBRET Fold Response (ADRB3, 1μM tracer): 0.96 |
| N#CN/C(=N\CCNC(=O)c1ccc(N)cc1)NCCCOc1cccc(CN2CCCCC2)c1 [Aminopotentidine (unmodified)] |  |  | NanoBRET Fold Response (ADRB3, other tracers/Aminopotentidine (unmodified), 0.1μM): 1.02; NanoBRET Fold Response (ADRB3, other tracers/Aminopotentidine (unmodified), 1μM): 1.10 |
| COc1ccc2[nH]c(-c3ccc(CNC(=O)CCOCCOCCOCCOCCNC(=O)CCc4ccc5n4[B-](F)(F)[N+]4=C(c6ccc[nH]6)C=CC4=C5)cc3)c(CCNC(C)=O)c2n1 [AzomelatoninICO9-2-NB590] |  |  | NanoBRET Fold Response (0.1μM tracer): 1.00; NanoBRET Fold Response (1μM tracer): 1.11 |
| O=C(CCOCCOCCOCCOCCNC(=O)CCc1ccc2n1[B-](F)(F)[N+]1=C(c3ccc[nH]3)C=CC1=C2)NCCCN1CCN(C2=Nc3cc(Cl)ccc3Nc3ccccc32)CC1 [Clozapine-a-2-NB590] |  |  | NanoBRET Fold Response (ADRB3, 0.1μM tracer): 0.97; NanoBRET Fold Response (ADRB3, 1μM tracer): 0.99 |
| CCCn1c(=O)c2[nH]c(-c3ccc(OCC(=O)NCCNC(=O)CCOCCNC(=O)c4ccc(CNC(=O)CCc5ccc6n5[B-](F)(F)[N+]5=C(c7ccc[nH]7)C=CC5=C6)cc4)cc3)nc2n(CCC)c1=O [XAC-3-NB590] | 1.11 | 1.05 |  |
| O=C(CCc1ccc2n1[B-](F)(F)[N+]1=C(c3ccc[nH]3)C=CC1=C2)NCc1ccc(C(=O)NCCOCCOCCNCC(O)COc2cccc3ccccc23)cc1 (stereo not drawn) [Propranolol-3-NB590] |  |  | NanoBRET Fold Response (ADRB3, 0.1μM): 1.47; NanoBRET Fold Response (ADRB3, 1μM): 1.17 |
| O=C(CCc1ccc2n1[B-](F)(F)[N+]1=C(c3ccc[nH]3)C=CC1=C2)NCc1ccc(C(=O)NCCOCCC(=O)N[C@@H]2CC[C@@]3(O)[C@H]4Cc5ccc(O)c6c5[C@@]3(CCN4CC3CC3)[C@H]2O6)cc1 [Naltrexone-3-NB590] | 0.99 | 1.02 |  |
| CN(CCC=C1c2ccccc2CCc2ccccc21)C(=O)CCOCCOCCOCCOCCNC(=O)CCc1ccc2n1[B-](F)(F)[N+]1=C(c3ccc[nH]3)C=CC1=C2 [Amitriptyline-e-2-NB590] |  |  | NanoBRET Fold Response (tracer at 1μM): 1.01 |
| N#CN=C(NCCCOc1cccc(CN2CCCCC2)c1)NCCNC(=O)CCOCCOCCOCCOCCNC(=O)CCc1ccc2n1[B-](F)(F)[N+]1=C(c3ccc[nH]3)C=CC1=C2 [Aminopotentidine-2-NB590] | 1.00 | 1.01 |  |
| COc1ccc2c(n1)c(CCNC(C)=O)cn2CCNC(=O)CCc1ccc2n1[B-](F)(F)[N+]1=C(c3ccc[nH]3)C=CC1=C2 [Azamelatonin-1-NB590] |  |  | NanoBRET Fold Response (0.1μM tracer): 1.01; NanoBRET Fold Response (1μM tracer): 1.06 |
| CC(C)N(CC[C@H](c1ccccc1)c1cc(CCNC(=O)c2ccc(CNC(=O)CCc3ccc4n3[B-](F)(F)[N+]3=C(c5ccc[nH]5)C=CC3=C4)cc2)ccc1O)C(C)C [Tolterodine-BZ-NB590] | 0.93 | 0.99 |  |
| CN1CCN(C2=Nc3cc(Cl)ccc3Nc3ccc(CNC(=O)CCOCCOCCOCCOCCNC(=O)CCc4ccc5n4[B-](F)(F)[N+]4=C(c6ccc[nH]6)C=CC4=C5)cc32)CC1 [Clozapine-b-2-NB590] |  |  | NanoBRET Fold Response (ADRB3, 0.1μM tracer): 1.01; NanoBRET Fold Response (ADRB3, 1μM tracer): 0.98 |
